The experiment concerns the target human PDHK2 (hPDHK2) (Homo sapiens (Human), UniProt Q15119). The experiment in a line: Inhibitory action of PDHK activity in vitro (kinase reaction, residual PDH activity measured). The class given is biochemical. As for the experimental part: In the case of human PDHK2 (hPDHK2, Genbank Accession No. NM_002611), modified hPDHK2 cDNA wherein FLAG-Tag sequence is added to the N terminal by a polymerase linkage reaction was prepared based on hPDHK2 cDNA clone (pReceiver-M01/PDK2-GeneCopoeia), and cloned into a vector (pET17b-Novagen). The recombinant construct was transformed into Escherichia coli (DH5α-TOYOBO). The recombinant clones were identified, plasmid DNA was isolated and subjected to the DNA sequence analysis. One clone which had the expected nucleic acid sequence was selected for expression work.
During the assay, the hPDHK2 enzyme concentration was set to the minimal concentration at which PDH is inhibited the most.
0.05 U/mL PDH (porcine heart PDH complex, Sigma P7032) and 1.6 μg/mL hPDHK2 were mixed in a buffer (50 mmol/L 3-morpholinopropanesulfonic acid (pH 7.0), 20 mmol/L dipotassium hydrogen phosphate, 60 mmol/L potassium chloride, 2 mmol/L magnesium chloride, 0.4 mmol/L EDTA, and 0.2% Pluronic F-68, 2 mmol/L dithiothreitol), the mixture was incubated at 4° C. overnight to give PDH/hPDHK2 complex. The test compound was diluted with dimethyl sulfoxide (DMSO). PDH/hPDHK2 complex (20 μL), test compound (1.5 μL) and 3.53 μmol/L ATP (diluted with buffer, 8.5 μL) were added to a half area 96 well UV-transparent microplate (Corning 3679), and PDHK reaction was performed at room temperature for 45 min. Instead of the test compound, DMSO (1.5 μL) was added to a control well. DMSO (1.5 μL) was added instead of the test compound to a blank well for the measurement of the maximum rate of PDH reaction, and hPDHK2 was not added. Than, 10 μL of substrates (5 mmol/L sodium pyruvate, 5 mmol/L Coenzyme A, 12 mmol/L NAD, and 5 mmol/L thiamine pyrophosphate, diluted with buffer) was added. The mixture was incubated at room temperature for 90 min, and the residual PDH activity was measured. The absorbance at 340 nm before and after PDH reaction was measured on a microplate reader to detect NADH produced by the PDH reaction. The PDHK inhibitory rate (%) of the test compound was calculated from the formula [{(PDH activity of test compound—PDH activity of control)/PDH activity of blank—PDH activity of control)}×100]. The IC50 value was calculated from the concentrations of the test compound at two points enclosing 50% inhibition of the PDHK activity.

Setting [1] is: read-out: PDHK inhibitory activity IC50.
Where [2] appears, read: PDHK inhibitory activity, class symbol of IC50.
Where [3] appears, read: PDHK inhibitory activity (class symbol).

Like-named read-outs stand apart in the source and are kept apart here. A value given as a limit tells only on which side of the number the result lay.

For the compound `Cc1cc(C(=O)N2CCC2)cc2c1-c1ccccc1C2(O)C(F)(F)F` (single isomer, unassigned) [compound 135], the IC50 is over 1 µM (class symbol of IC50, read-out: PDHK inhibitory activity) and over 1 µM under setting [1].
In the case of `Cc1cc(C(=O)N2CCC2)cc2c1-c1ccccc1C2(O)C(F)(F)F` (single isomer, unassigned) [compound 136], the IC50 is under 0.1 µM under setting [2] and 0.025 µM under setting [1].
Consider `Cc1cc(C(=O)N2CC(OCCO)C2)cc2c1-c1ccccc1C2(O)C(F)(F)F` (single isomer, unassigned) [compound 152], for which the IC50 runs as follows: under setting [2], under 0.1 µM; under setting [1], 0.054 µM.
For `COC(=O)COc1cc(Br)c2c(c1)C(O)(C(F)(F)F)c1ccccc1-2` (single isomer, unassigned) [compound 451, (4-bromo-9-hydroxy-9-trifluoromethyl-9H-fluoren-2-yloxy)-acetic acid methyl ester] the same measures were 0.1 to 1 µM and 0.102 µM.
For the compound `COC(=O)COc1cc(Br)c2c(c1)C(O)(C(F)(F)F)c1ccccc1-2` (single isomer, unassigned) [compound 452], the IC50 runs as follows: under setting [2], over 1 µM; under setting [1], 2.72 µM.
Take `Cn1cc(-c2cc(OCC(N)=O)cc3c2-c2ccccc2C3(O)C(F)(F)F)cn1` (single isomer, unassigned) [compound 467]: the IC50 under setting [2] was under 0.1 µM and the IC50 under setting [1] came to 0.018 µM.
The like results for `COC(=O)c1cc(Br)c2c(c1)C(O)(C(F)(F)F)c1ccccc1-2` (single isomer, unassigned) [compound 473] were, in that order, under 0.1 µM and 0.09 µM.
Consider `Cn1cc(-c2cc(OCC(=O)N3CC(CO)C3)cc3c2-c2ccccc2C3(O)C(F)(F)F)cn1` (single isomer, unassigned) [compound 474], for which the IC50 reads like this: under setting [2], under 0.1 µM; under setting [1], 0.019 µM.
The like results for `Cn1cc(-c2cc(OCC(=O)N3CC(O)C3)cc3c2-c2ccccc2C3(O)C(F)(F)F)cn1` (single isomer, unassigned) [compound 475] were, in that order, under 0.1 µM and 0.02 µM.
Regarding `NC(=O)COc1cc(-c2cnn(CCO)c2)c2c(c1)C(O)(C(F)(F)F)c1ccccc1-2` (single isomer, unassigned) [compound 477], the IC50 was under 0.1 µM under setting [2] and 0.018 µM under setting [1].
Regarding `O=C(O)CCCOc1cc(Cl)c2c(c1)C(O)(C(F)(F)F)c1ccccc1-2` (single isomer, unassigned) [compound 479], the IC50 under setting [2] is over 1 µM and the IC50 under setting [1] is over 10 µM.
Turning to `COC(=O)COc1cc(Cl)c2c(c1)C(O)(C(F)(F)F)c1ccccc1-2` (single isomer, unassigned) [compound 481, (4-chloro-9-hydroxy-9-trifluoromethyl-9H-fluoren-2-yloxy)-acetic acid methyl ester], the IC50 was 0.1 to 1 µM under setting [2] and 0.251 µM under setting [1].
With `Cn1cc(-c2cc(OCCCC(=O)O)cc3c2-c2ccccc2C3(O)C(F)(F)F)cn1` (single isomer, unassigned) [compound 504, 4-[9-hydroxy-4-(1-methyl-1H-pyrazol-4-yl)-9-trifluoromethyl-9H-fluoren-2-yloxy]-butyric acid], the IC50 reads like this: under setting [2], under 0.1 µM; under setting [1], 0.019 µM.
As to `Cn1cc(-c2cc(OCCC34CC5CC(CC(O)(C5)C3)C4)cc3c2-c2ccccc2C3(O)C(F)(F)F)cn1` (single isomer, unassigned) [compound 540], the IC50 under setting [2] was under 0.1 µM and the IC50 under setting [1] is 0.016 µM.
As for `NC(=O)Cn1cc(-c2cc(OCCC34CC5CC(CC(O)(C5)C3)C4)cc3c2-c2ccccc2C3(O)C(F)(F)F)cn1` (single isomer, unassigned) [compound 541], the IC50 was under 0.1 µM under setting [2] and 0.015 µM under setting [1].
In the case of `OCCn1cc(-c2cc(OCCC34CC5CC(CC(O)(C5)C3)C4)cc3c2-c2ccccc2C3(O)C(F)(F)F)cn1` (single isomer, unassigned) [compound 542], the IC50 runs as follows: under setting [2], under 0.1 µM; under setting [1], 0.015 µM.
Regarding `Cn1cc(-c2cc(OCCCCC(=O)O)cc3c2-c2ccccc2C3(O)C(F)(F)F)cn1` (single isomer, unassigned) [compound 552], the IC50 was under 0.1 µM under setting [2] and 0.017 µM under setting [1].
With `CC(C)n1cc(-c2cc(OCCCC(=O)O)cc3c2-c2ccccc2C3(O)C(F)(F)F)cn1` (single isomer, unassigned) [compound 553], the IC50 was under 0.1 µM under setting [2] and 0.018 µM under setting [1].
Regarding `CCn1cc(-c2cc(OCCCC(=O)O)cc3c2-c2ccccc2C3(O)C(F)(F)F)cn1` (single isomer, unassigned) [compound 554], the IC50 under setting [2] was under 0.1 µM and the IC50 under setting [1] stood at 0.02 µM.
`O=C(O)CCCOc1cc(-c2cccnc2)c2c(c1)C(O)(C(F)(F)F)c1ccccc1-2` (single isomer, unassigned) [compound 561]: the IC50 is, setting by setting: under setting [2], under 0.1 µM; under setting [1], 0.05 µM.
Consider `OC[C@@H](O)Cn1cc(-c2cc(F)cc3c2-c2ccccc2C3(O)C(F)(F)F)cn1` (single isomer, unassigned) [compound 565], for which the IC50 by setting is: under setting [2], under 0.1 µM; under setting [1], 0.018 µM.
On to `OC[C@H](O)Cn1cc(-c2cc(F)cc3c2-c2ccccc2C3(O)C(F)(F)F)cn1` (single isomer, unassigned) [compound 566], for which the IC50 runs as follows: under setting [2], under 0.1 µM; under setting [1], 0.021 µM.
In the case of `Cn1cc(-c2cc(OCCCc3nnn[nH]3)cc3c2-c2ccccc2C3(O)C(F)(F)F)cn1` (single isomer, unassigned) [compound 573], the IC50 under setting [2] is under 0.1 µM and the IC50 under setting [1] worked out at 0.018 µM.
For `Cc1cc(-c2cnn(C(C)(C)C(=O)O)c2)c2c(c1)C(O)(C(F)(F)F)c1ccccc1-2` (single isomer, unassigned) [compound 574] the same measures were under 0.1 µM and 0.052 µM.
`Cc1cc(-c2cnn(CC(C)(C)C(=O)O)c2)c2c(c1)C(O)(C(F)(F)F)c1ccccc1-2` (single isomer, unassigned) [compound 575]: the IC50 was under 0.1 µM under setting [2] and 0.036 µM under setting [1].
As for `Cc1cc(-c2cnn(C(C)(C)CC(=O)O)c2)c2c(c1)C(O)(C(F)(F)F)c1ccccc1-2` (single isomer, unassigned) [compound 576], the IC50 is under 0.1 µM under setting [2] and 0.03 µM under setting [1].
`CC(CCOc1cc(-c2cnn(C)c2)c2c(c1)C(O)(C(F)(F)F)c1ccccc1-2)C(=O)O` (single isomer, unassigned) [compound 577]: the IC50 was under 0.1 µM under setting [2] and 0.023 µM under setting [1].
Turning to `CCOc1cc(-c2cnn(CCC(=O)O)c2)c2c(c1)C(O)(C(F)(F)F)c1ccccc1-2` (single isomer, unassigned) [compound 581], the IC50 is, setting by setting: under setting [2], under 0.1 µM; under setting [1], 0.019 µM.
Regarding `CCOc1cc(-c2cnn(CCCC(=O)O)c2)c2c(c1)C(O)(C(F)(F)F)c1ccccc1-2` (single isomer, unassigned) [compound 582], the IC50 is, setting by setting: under setting [2], under 0.1 µM; under setting [1], 0.021 µM.
For `COc1cc(-c2cnn(CCC(=O)O)c2)c2c(c1)C(O)(C(F)(F)F)c1ccccc1-2` (single isomer, unassigned) [compound 588] the same measures were under 0.1 µM and 0.029 µM.
Turning to `COc1cc(-c2cnn(CCCC(=O)O)c2)c2c(c1)C(O)(C(F)(F)F)c1ccccc1-2` (single isomer, unassigned) [compound 589], the IC50 runs as follows: under setting [2], under 0.1 µM; under setting [1], 0.025 µM.
With `O=C(O)CCCOc1cc(-c2cncnc2)c2c(c1)C(O)(C(F)(F)F)c1ccccc1-2` (single isomer, unassigned) [compound 604], the IC50 under setting [3] is under 0.1 µM and the IC50 under setting [1] stood at 0.035 µM.
For `Cc1cc(-c2cnn(C(CO)CO)c2)c2c(c1)C(O)(C(F)(F)F)c1ccccc1-2` (single isomer, unassigned) [compound 605] the same measures were under 0.1 µM and 0.019 µM.
For `Cc1cc(-c2cnn(CCCCC(=O)O)c2)c2c(c1)C(O)(C(F)(F)F)c1ccccc1-2` (single isomer, unassigned) [compound 606], the IC50 reads like this: under setting [3], under 0.1 µM; under setting [1], 0.028 µM.
For the compound `CC(C)(Cn1cc(-c2cc(F)cc3c2-c2ccccc2C3(O)C(F)(F)F)cn1)C(=O)O` (single isomer, unassigned) [compound 607], the IC50 by setting is: under setting [3], under 0.1 µM; under setting [1], 0.045 µM.
Regarding `CC(C)(CC(=O)O)n1cc(-c2cc(F)cc3c2-c2ccccc2C3(O)C(F)(F)F)cn1` (single isomer, unassigned) [compound 610], the IC50 was under 0.1 µM under setting [3] and 0.041 µM under setting [1].

(Values after US8871934B2, “Fluorene compound and pharmaceutical use thereof” (Japan Tobacco Inc., priority 2008, dated 2014).)
